# Laboratory results: ChEMBL document CHEMBL5518196, “Discovery of potent thiazolidin-4-one sulfone derivatives for inhibition of proliferation of osteosarcoma in vitro and in vivo” (Eur J Med Chem, 2024)
# Tests used:
# [1] = tested on: HOS-TE85; assay: Antiproliferative activity against human MNNG/HOS cells assessed as inhibition of cell growth incubated for 72 hrs by CCK8 assay; type: functional, cell-based; details: HOS-TE85, 72 h
# [2] = Metabolic stability in human liver microsomes assessed as bioavailability at 0.1 uM preincubated for 10 mins followed by NADPH addition and measured upto 60 mins by LC-MS/MS analysis; type: ADME, Microsome; details: time < 70 min
# [3] = Metabolic stability in mouse liver microsomes assessed as half-life at 0.1 uM preincubated for 10 mins followed by NADPH addition and measured upto 60 mins by LC-MS/MS analysis; type: ADME, Microsome; details: time < 70 min
# [4] = Metabolic stability in human liver microsomes assessed as half-life at 0.1 uM preincubated for 10 mins followed by NADPH addition and measured upto 60 mins by LC-MS/MS analysis; type: ADME, Microsome; details: time < 70 min
Compound,IC50 [1] [nM],other results
O=C(NCCCCc1ccccc1)c1cccc(C2N(c3cccc4ccccc34)C(=O)CS2(=O)=O)c1 (stereo not drawn),> 10000,
COCCCCNC(=O)c1cccc([C@@H]2N(c3ncccc3OC)C(=O)CS2(=O)=O)n1,113,
COc1cccc(N2C(=O)CS(=O)(=O)C2N(CCCCc2ccccc2)C(=O)c2ccccc2)c1 (stereo not drawn),68,
O=C(CCCCc1ccccc1)Nc1cccc(C2N(c3ccccc3)C(=O)CS2(=O)=O)c1 (stereo not drawn),508,
Cc1cccc(N2C(=O)CS(=O)(=O)C2c2cccc(C(=O)NCCCCc3ccccc3)n2)n1 (stereo not drawn),775,
O=C(NCCCCO)c1cccc(C2N(c3ccccn3)C(=O)CS2(=O)=O)n1 (stereo not drawn),> 1000,
O=C(NCCCCc1ccccc1)c1cccc(C2N(c3ccccn3)C(=O)CS2(=O)=O)c1 (stereo not drawn),25,
Cc1ccc(N2C(=O)CS(=O)(=O)C2c2cccc(C(=O)NCCCCc3ccccc3)n2)nc1 (stereo not drawn),31,
O=C(NCCCCc1ccccc1)c1cccc(C2N(CCc3ccccc3)C(=O)CS2(=O)=O)c1 (stereo not drawn),> 10000,
Cc1ccnc(N2C(=O)C[S+]([O-])C2c2cccc(C(=O)NCCCCn3cccn3)c2)c1 (stereo not drawn),3120,
COc1cccnc1N1C(=O)CS(=O)(=O)C1c1cccc(C(=O)NCCCCc2ccccc2)n1 (stereo not drawn),6,bioavailability at 0.1 µM [2]: 1.94%; half-life at 0.1 µM [3]: 1.03 min; half-life at 0.1 µM [4]: 2.12 min
O=C(NCCCCc1ccccc1)c1cccc(C2N(c3ccc[n+]([O-])c3)C(=O)CS2(=O)=O)c1 (stereo not drawn),> 10000,
O=C(NCCCCc1ccccc1)c1ccc(C2N(c3ccccc3)C(=O)CS2(=O)=O)o1 (stereo not drawn),41,
O=C(NCCCCc1ccccc1)c1cccc(C2N(c3ccccc3)C(=O)CS2(=O)=O)n1 (stereo not drawn),> 10000,
CC(C)(C)OCCCCNC(=O)c1cccc(C2N(c3ccccn3)C(=O)CS2(=O)=O)n1 (stereo not drawn),> 1000,
COC(=O)c1cccc(C2N(c3ccccc3)C(=O)CS2(=O)=O)c1 (stereo not drawn),> 10000,
O=C(NCCCCc1ccccc1)c1cc(-c2ccccc2)cc(C2N(c3ccccc3)C(=O)CS2(=O)=O)c1 (stereo not drawn),> 10000,
COC(=O)c1cc(C(=O)NCCCCc2ccccc2)cc(C2N(c3ccccc3)C(=O)CS2(=O)=O)c1 (stereo not drawn),60,
O=C(NCCCC(=O)N1CCCC1)c1cccc(C2N(c3ccccn3)C(=O)CS2(=O)=O)n1 (stereo not drawn),> 1000,
COCCCCNC(=O)c1cccc(C2N(c3ccc(C)cn3)C(=O)CS2(=O)=O)n1 (stereo not drawn),262,
O=C(NCCCCc1ccccc1)c1cccc(C2N(c3ccccc3)C(=O)C[S+]2[O-])c1 (stereo not drawn),3110,
O=C(NCCCCc1ccccc1)c1cccc(C2N(c3cccc(Cl)c3)C(=O)CS2(=O)=O)c1 (stereo not drawn),75,

Compound,IC50 [1] [nM],other results
Cc1ccnc(N2C(=O)C[S+]([O-])C2c2cccc(C(=O)NCCCCn3cccn3)n2)c1 (stereo not drawn),8290,
Cc1cc(N2C(=O)CS(=O)(=O)C2c2cccc(C(=O)NCCCCc3ccccc3)c2)no1 (stereo not drawn),447,
O=C(NCCCCc1ccccc1)c1cccc(C2N(C3CC3)C(=O)CS2(=O)=O)c1 (stereo not drawn),> 10000,
O=C(NCCCCc1ccccc1)c1cccc(C2N(c3ccc4c(c3)OCO4)C(=O)CS2(=O)=O)c1 (stereo not drawn),73,
O=C(NCCCCn1cccn1)c1cccc(C2N(c3ccccn3)C(=O)CS2(=O)=O)n1 (stereo not drawn),979,
COC(=O)c1cccc(C2SCC(=O)N2c2ccccn2)n1 (stereo not drawn),> 1000,
Cc1ccnc(N2C(=O)CS(=O)(=O)C2c2cccc(C(=O)NCCCCn3cccn3)n2)c1 (stereo not drawn),924,
O=C(NCCCCc1ccccc1)c1cccc(C2N(c3cccc(Cl)c3)C(=O)CS2(=O)=O)n1 (stereo not drawn),430,
O=C(NCCCCc1ccccc1)c1cccc(C2N(c3ccccn3)C(=O)CS2(=O)=O)n1 (stereo not drawn),109,
COCCCCNC(=O)c1cccc([C@@H]2N(c3ccc(F)cn3)C(=O)CS2(=O)=O)n1,272,
O=C(NCCCCc1ccccc1)c1cccc(C2N(c3cccc(F)c3)C(=O)C[S+]2[O-])c1 (stereo not drawn),83,
O=C(NCCCCc1ccccc1)c1cccc(C2N(c3cc(Cl)ccn3)C(=O)CS2(=O)=O)n1 (stereo not drawn),469,
O=C(NCCOCc1ccccc1)c1cccc(C2N(c3ccccn3)C(=O)CS2(=O)=O)n1 (stereo not drawn),> 1000,
COc1ccccc1N1C(=O)CS(=O)(=O)C1c1cccc(C(=O)NCCCCc2ccccc2)c1 (stereo not drawn),31,
O=C(NCCCCc1ccccc1)c1cc(C(=O)NCCCCc2ccccc2)cc(C2N(c3ccccc3)C(=O)CS2(=O)=O)c1 (stereo not drawn),> 10000,
COCCCCNC(=O)c1cccc(C2N(c3ccc(F)cn3)C(=O)CS2(=O)=O)n1 (stereo not drawn),283,
O=C(CCCNC(=O)c1cccc(C2N(c3ccccn3)C(=O)CS2(=O)=O)n1)c1ccccc1 (stereo not drawn),203,
COC(=O)CCCNC(=O)c1cccc(C2N(c3ccccn3)C(=O)CS2(=O)=O)n1 (stereo not drawn),142,
O=C1CS(=O)(=O)C(c2cccc(C(=O)NCCCCc3ccccc3)c2)N1 (stereo not drawn),> 10000,
Cc1ccnc(N2C(=O)CS[C@H]2c2cccc(C(=O)NCCCCn3cccn3)c2)c1,> 10000,
O=C(CCCNC(=O)c1cccc(C2N(c3ccccn3)C(=O)CS2(=O)=O)n1)Nc1ccccc1 (stereo not drawn),> 1000,
O=C(NCCCCc1ccccc1)c1cccc(C2N(c3cccc(F)c3)C(=O)CS2(=O)=O)c1 (stereo not drawn),103,

Compound,IC50 [1] [nM],other results
O=C(NCCCCc1ccccc1)c1cccc(C2N(c3ccccc3)C(=O)CS2(=O)=O)c1 (stereo not drawn),150,
Cc1ccnc(N2C(=O)CS(=O)(=O)C2c2cccc(C(=O)NCCCCc3ccccc3)c2)c1 (stereo not drawn),71,
CCCCNC(=O)c1cccc(C2N(c3ccccn3)C(=O)CS2(=O)=O)n1 (stereo not drawn),420,
Cc1ccnc(N2C(=O)CS(=O)(=O)C2c2cccc(C(=O)NCCCCc3ccccc3)n2)c1 (stereo not drawn),33,
O=C(O)c1cc(C(=O)NCCCCc2ccccc2)cc(C2N(c3ccccc3)C(=O)CS2(=O)=O)c1 (stereo not drawn),> 10000,
O=C(NCCCCc1ccccc1)c1cccc(C2N(c3ccc(F)cn3)C(=O)CS2(=O)=O)n1 (stereo not drawn),20,
O=C(CCCNC(=O)c1cccc(C2N(c3ccccn3)C(=O)CS2(=O)=O)n1)Nc1ccc(F)cc1 (stereo not drawn),> 1000,
O=C(NCCCCc1ccccc1)c1cccc(C2N(Cc3ccccc3)C(=O)CS2(=O)=O)c1 (stereo not drawn),> 10000,
O=C(NCCCCc1ccccc1)c1cccc(C2N(c3cccc(F)c3)C(=O)CS2(=O)=O)n1 (stereo not drawn),17,
Cc1cc(N2C(=O)C[S+]([O-])C2c2cccc(C(=O)NCCCCc3ccccc3)c2)no1 (stereo not drawn),354,
O=C(NCCCCc1ccccc1)c1cccc(C2N(c3ncccc3F)C(=O)CS2(=O)=O)n1 (stereo not drawn),25,
O=C(NCCCCc1ccccc1)c1cccc(C2N(c3ccc4ccccc4c3)C(=O)CS2(=O)=O)c1 (stereo not drawn),474,
COC(=O)CCNC(=O)c1cccc(C2N(c3ccccn3)C(=O)CS2(=O)=O)n1 (stereo not drawn),> 1000,
COCCCCNC(=O)c1cccc([C@H]2N(c3ncccc3OC)C(=O)CS2(=O)=O)n1,71,
CN(CCCCc1ccccc1)C(=O)c1cccc(C2N(c3ccccc3)C(=O)CS2(=O)=O)c1 (stereo not drawn),> 10000,
Cc1ccnc(N2C(=O)CS[C@@H]2c2cccc(C(=O)NCCCCn3cccn3)c2)c1,,bioavailability at 0.1 µM [2]: 13.2%; half-life at 0.1 µM [3]: 5.36 min; half-life at 0.1 µM [4]: 16.3 min
COCCCCNC(=O)c1cccc(C2N(c3ncccc3C)C(=O)CS2(=O)=O)n1 (stereo not drawn),702,
COc1ccnc(N2C(=O)CS(=O)(=O)C2c2cccc(C(=O)NCCCCc3ccccc3)n2)c1 (stereo not drawn),178,
C#Cc1cc(C(=O)NCCCCc2ccccc2)cc(C2N(c3ccccc3)C(=O)CS2(=O)=O)c1 (stereo not drawn),9,
COCCCCNC(=O)c1cccc(C2N(c3ncccc3OC)C(=O)CS2(=O)=O)c1 (stereo not drawn),> 1000,
O=C(NCCCCc1ccccc1)c1cccc(C2N(c3cccc(F)n3)C(=O)CS2(=O)=O)n1 (stereo not drawn),> 1000,
COCCCCNC(=O)c1cccc(C2N(c3ncccc3OC)C(=O)C[S+]2[O-])n1 (stereo not drawn),> 1000,

Compound,IC50 [1] [nM],other results
Cc1cccc(N2C(=O)C[S+]([O-])C2c2cccc(C(=O)NCCCCc3ccccc3)c2)c1 (stereo not drawn),177,
COCCCCNC(=O)c1cccc([C@H]2N(c3ccc(F)cn3)C(=O)CS2(=O)=O)n1,137,
COCCCCNC(=O)c1cccc(C2N(c3ccccn3)C(=O)C[S+]2[O-])n1 (stereo not drawn),> 1000,
O=C(NCCCCc1ccccc1)c1cccc(C2N(Cc3ccccc3)C(=O)C[S+]2[O-])c1 (stereo not drawn),> 10000,
O=C(NCCCCc1ccccc1)c1cccc(C2N(C3CCCCC3)C(=O)CS2(=O)=O)c1 (stereo not drawn),2020,
O=C(NCCCCc1ccccc1)c1cccc(C2N(c3ccccc3)C(=O)C[S+]2[O-])n1 (stereo not drawn),260,
COC(=O)CCCCNC(=O)c1cccc(C2N(c3ccccn3)C(=O)CS2(=O)=O)n1 (stereo not drawn),225,
CCCCNC(=O)c1cccc(C2N(c3ccccc3)C(=O)CS2(=O)=O)c1 (stereo not drawn),> 10000,
COCCCNC(=O)c1cccc(C2N(c3ccccn3)C(=O)CS2(=O)=O)n1 (stereo not drawn),926,
Cc1ccnc(N2C(=O)C[S+]([O-])C2c2cccc(C(=O)NCCCCc3ccccc3)c2)c1 (stereo not drawn),74,
COc1ccccc1N1C(=O)CS(=O)(=O)C1c1cccc(C(=O)NCCCCc2ccccc2)n1 (stereo not drawn),4,
CCN(CC)C(=O)CCCNC(=O)c1cccc(C2N(c3ccccn3)C(=O)CS2(=O)=O)n1 (stereo not drawn),> 1000,
Cc1cccc(N2C(=O)CS(=O)(=O)C2c2cccc(C(=O)NCCCCc3ccccc3)c2)c1 (stereo not drawn),230,
O=C(NCCCCc1ccccc1)c1cccc(C2N(c3cccc4cccnc34)C(=O)CS2(=O)=O)c1 (stereo not drawn),25,
C#Cc1cc(C(=O)NCCCCc2ccccc2)cc(C2N(c3ccccn3)C(=O)CS2(=O)=O)c1 (stereo not drawn),32,
O=C(NCCCCc1ccccc1)c1cccc(C2N(C3CCOCC3)C(=O)CS2(=O)=O)c1 (stereo not drawn),> 10000,
Cc1cccnc1N1C(=O)CS(=O)(=O)C1c1cccc(C(=O)NCCCCc2ccccc2)n1 (stereo not drawn),50,
O=C(NCCCCc1ccccc1)c1cccc(C2N(CCc3ccccc3)C(=O)C[S+]2[O-])c1 (stereo not drawn),> 10000,
O=C(NCCCCc1ccccc1)c1cccc(C2N(c3ncccc3O)C(=O)CS2(=O)=O)n1 (stereo not drawn),45,
COc1cccnc1N1C(=O)CS(=O)(=O)C1c1cccc(C(=O)NCCCCc2ccccc2)c1 (stereo not drawn),16,
O=C(NCCCCc1ccccc1)c1cccc(C2N(c3ccc(-c4ccccc4)cc3)C(=O)CS2(=O)=O)c1 (stereo not drawn),> 10000,
O=C(NCCCCc1ccccc1)c1ccc(C2N(c3ccccc3)C(=O)CS2(=O)=O)cc1 (stereo not drawn),> 10000,
